In test [1] the target is T1, RalA (Homo sapiens, UniProt P11233).
T1 construct: expressed in transfected cells; host or cells: HepG2 (from b6; the methods paragraph names no cell line)
T1 sequence (P11233 1-203 limits assumed): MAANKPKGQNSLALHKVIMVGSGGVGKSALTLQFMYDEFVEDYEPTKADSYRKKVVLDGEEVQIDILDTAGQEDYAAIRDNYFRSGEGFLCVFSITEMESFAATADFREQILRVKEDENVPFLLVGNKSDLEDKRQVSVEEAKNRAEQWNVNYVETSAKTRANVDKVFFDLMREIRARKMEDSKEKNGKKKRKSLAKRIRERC
In words: ELISA-based RalA activity assay (RalBP1-coated plates, lysates of compound-treated cells). Type of test: biochemical. The gist of the method:
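Lysates of compound- or vehicle-treated cells, cleared by cold centrifugation, incubated overnight at 4°C on RalBP1-coated plates. Bound Ral detected with mouse anti-FLAG then HRP anti-mouse antibody; reaction stopped with 2 mol/L sulfuric acid and read at OD450.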
On the technique in general: An ELISA detects its analyte on a solid surface through an enzyme-linked reagent.

The next test has as its system Huh-7 cells. In words: Cell proliferation assay (MTT), Huh-7. Type of test: cell-based. The following applies: Homo sapiens. In a few lines:
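HCC lines cultured in DMEM with 10% FBS and streptomycin; cytotoxicity measured by MTT method as previously described.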

The next test deals with SMMC-7721 cells. Nature of the test: Cell proliferation assay (MTT), SMMC-7721. It counts as cell-based. The following applies: Homo sapiens, average of at least three independent replicates ± SD, read-out: Anti-proliferative activities (IC50, μM) SMMC-7721. The method, then:
The antibodies recognizing LC3, p62/SQSTM1, RalA, RalB, and GAPDH were purchased from Proteintech (Wuhan, China). HCC cell lines, including HepG2, Hep3B, Huh-7, and SMMC-7721, were obtained from the Chinese Center for Type Culture Collection (Wuhan, China) and cultured in DMEM (Dulbecco’s modified Eagle’s medium) with 10% FBS (fetal bovine serum) and streptomycin. Cytotoxicity assays were performed by using the MTT method as previously described.
(§1) The in vitro RalA/B bioactivity assays were performed following methods outlined in previous reports. ([Yan et al., 2016]; [Zhang et al., 2018]; [Walsh et al., 2019]; [Bum-Erdene et al., 2020]). In brief, the lysates of the test compound or vehicle-treated cells were cleared using cold centrifugation, and supernatants were collected. An RalBP1 solution was added to 96-well plates and incubated for 1–2 h, and then the plates were washed thrice using ELISA buffer. Next, cellular lysates were added, and samples were incubated overnight at 4°C. Then, ice-cold mouse anti-FLAG antibody was added, and samples were incubated for one more hour. After subsequent washing with ELISA buffer thrice, the HRP-conjugated anti-mouse antibody was added, and samples were incubated for another hour. Then, the HRP substrate was added. Antigen–antibody reactions were quenched by the addition of sulfuric acid (2 mol/L). Remaining RalA/B was detected by the OD450 values which were collected by using a plate reader. Cell proliferation assays, colony formation assays, apoptosis assays, GST pulldown, and Western blotting were used following methods outlined in our previous reports. ([Zhou et al., 2015]; [Zhang et al., 2016]; [Yang et al., 2017]; [He et al., 2019]). Autophagy levels and protein immunoblotting were used following the methods mentioned in our previous reports ([Pan et al., 2018]; [Wang et al., 2018]; [Hao et al., 2019]; [Wang et al., 2019]; [Peng et al., 2020]). Detailed experimental procedures are described in supporting materials.

The target in test [2] is T1, RalA. Nature of the test: GST pulldown of activated RalA. Type of test: cell-based. As for the experimental part:
GST pulldown assays were performed to assess 4p RalA/B inhibitory capacities. […] Only activated RalA was suppressed after incubation with 0.5 μM of compound 4p (Figure 5A).
as §1

The next test has as its system HepG2 cells. Nature of the test: Autophagy assays in HepG2 cells (TEM, Western blotting, GFP-LC3 puncta). It counts as cell-based. As for the experimental part:
Several reports have characterized RalA/B potential regulatory roles in autophagy ([Zhang et al., 2019]; [Pang et al., 2020]; [Zhang et al., 2020]). Considering the dual effect of HCC autophagy, we assessed changes in HepG2 cell autophagy levels after the addition of 0.5 or 2.0 μM of 4p, before incubation. Based on HepG2 cells’ TEM images with or without 4p (Figure 5B), autophagy vacuoles per cell decreased in the 4p-treated group (p < 0.01). After 4p treatments, LC3-II and ATG5 protein levels declined and SQSTM1 increased. […] In GFP-LC3–transfected HepG2 cells, cytoplasm LC3 fluorescent puncta numbers also declined after 4p treatments. […] The in vivo antitumor capacities of 4p were determined on a HepG2 subcutaneous xenograft model. The 4p intraperitoneal injections were set to 15 mg/kg and 60 mg/kg, according to in vitro results. […] The potential 4p molecular mechanisms were further validated using immunofluorescence and IHC analyses of tissue sections stained by antibodies against TUNEL, Ki-67, RalA, LC3-II, and SQSTM1. […] Therefore, the in vivo results were consistent with in vitro experiments. […]
The autophagy assay is relied on HepG2 cells transfected by GFP-LC3. In brief, the HepG2 cells after transfecting are processed by saline or compound 4p for 6 h, after that the cells are going to fix by paraformaldehyde and the phenomenon of autophagosome punctures can be observed through the accumulated of GFP-LC3 under laser confocal microscopy.
2. Western blotting analysis
For western blotting, the extracts of total protein from each sample were treated in accordance with the method we described previously. In short, the total proteins were loaded into the SDS-PAGE gel and separated through the different of their molecular weight in electrophoresis, after that the separated proteins were shifted into a PVDF membrane (Millipore, Burlington, MA, USA) and incubated through corresponding membrane react pathways. The resulted membranes reacted with major antibodies and HRP (horseradish peroxidase)-conjugated secondary antibodies. The expression profiles of target proteins can be identified through an enhanced chemiluminescence (ECL) substrate. […]
On the technique in general: A western blot detects proteins with antibodies after separation by electrophoresis.

Structures are written as SMILES. Where two headings read alike, the source gives them in different places.

Broadly, the remaining activity is what remains of the control signal, in per cent. Lower therefore signals little activity left. As usually defined, the IC50 is the concentration that gives 50% inhibition. In turn, `COc1ccc(S(=O)(=O)NC2=C(C#N)C(c3ccc(C(F)(F)F)cc3)c3c(C)nn(-c4ccccc4)c3O2)cc1` (stereo not drawn) [4p, N-(5-cyano-3-methyl-1-phenyl-4-(4-(trifluoromethyl)phenyl)-1,4-dihydropyrano[2,3-c]-pyrazol-6-yl)-4-methoxybenzenesulfonamide] came in with a remaining activity at 1 µM on RalA [1] (1 μM compound, % control = activity remained) of 13%. Besides, the IC50 at RalA [1] (enzymatic inhibition, average of at least three independent replicates ± SD, read-out: Kinase activities (IC50, μM) RalA) stood at 0.22 ± 0.04 µM; with Huh-7 cells (Table 1, cell proliferation inhibition, read-out: IC50 (μM) Huh7), 4.31 ± 0.39 µM; in the test on Huh-7 cells (Table 2, average of at least three independent replicates ± SD, read-out: Anti-proliferative activities (IC50, μM) Huh-7), 4.31 ± 0.39 µM; in the test with SMMC-7721 cells it was 5.38 ± 0.37 µM. Besides, the “activated RalA protein expression level” value was “suppressed” on RalA [2] (0.5 μM, only activated RalA, not RalB) and “significantly suppressed” at RalA [2] (2.0 μM). The “total RalA expression” value on RalA [2] (GST pulldown experiment) is recorded as “unchanged”. For the same molecule, in the test with HepG2 cells (GFP-LC3–transfected HepG2 cells, 2.0 μM), the “cytoplasm LC3 fluorescent puncta numbers” value is “declined”. For the same molecule, the “LC3-II and ATG5 protein levels (Western blotting)” value with HepG2 cells (HepG2, 0.5 or 2.0 μM) is “declined”. In addition, the “SQSTM1 protein level (Western blotting)” value in the test on HepG2 cells (HepG2, 0.5 or 2.0 μM) is given as “increased”. Besides, the “autophagy vacuoles per cell (TEM)” value with HepG2 cells (HepG2, 4p-treated group, p < 0.01) is reported as “decreased”.
